How the values were obtained:
[1] = Ester stability assay in buffer (RP-HPLC); format: physicochemical; conditions: for percentage of compound peak area present after 16 h of incubation, PBS: PBS buffer pH 7.4, 16 h; for percentage of compound peak area present after 16 h of incubation, PBS / percentage of compound peak area present after 16 h of incubation, Tris: room temperature, 1 mM compound; for hydrolytic stability in buffer (in words): PBS pH 7.4 and Tris pH 8.4, over 16 h; for percentage of compound peak area present after 16 h of incubation, Tris: Tris buffer pH 8.4, 16 h
Protocol: The prodrugs were evaluated for their stability in both PBS buffer at pH 7.4 and Tris buffer at pH 8.4. The compounds were dissolved in DMSO at a concentration of 40 mM and diluted with the respective buffer to a final concentration of 1 mM. Compounds were tested directly (t0) and subsequently every 2 h over a time period of 16 h by HPLC. Compounds were eluted from a Dr. Maisch ReproSil-Pur C18 column (4.6 × 250 mm, 10 μm particle size, Dr. Maisch, Ammerbuch-Entringen, Germany) with the following solvent system at a flow rate of 0.5 mL/min: solvent A, 0.1% trifluoroacetic acid in water/acetonitrile (95:5); solvent B, 0.1% trifluoroacetic acid in water/acetonitrile (5:95). Gradient elution was as follows: 100:0 (A/B) to 0:100 (A/B) over 8 min, 0:100 (A/B) for 1 min, then reversion back to 100:0 (A/B) over 1 min, 100:0 (A/B) for 2 min. The formation of the parent compound was evaluated and normalized by measuring the peak area at 214 nm and comparing it to the initial timepoint.
All prodrugs prepared were first tested for their inhibitory activity against NNMT using a biochemical enzymatic activity assay. […] Both these buffers and pHs have been used in the different biochemical and cellular assays described in this report. Compounds were dissolved in DMSO at a concentration of 40 mM and diluted with the respective buffer to a final concentration of 1 mM. Compound stability was then assessed by RP-HPLC directly (t0) and subsequently every 2 h over a time period of 16 h. […] Even for the rather labile methyl ester 12b, the TML group in 14b results in a decrease in hydrolysis of the methyl ester.

NNMT [2] = target: T1, NNMT (Homo sapiens, UniProt P40261); assay: Cellular MNA in HMEC-1 cells (Figure S1); format: cell-based; set-up: concentrations in endothelial HMEC-1 cells after 24-hour incubation; endogenous in cells; host or cells: HMEC-1 endothelial cells; conditions: 10 µM, 24-hour incubation
T1 sequence (P40261 1-264): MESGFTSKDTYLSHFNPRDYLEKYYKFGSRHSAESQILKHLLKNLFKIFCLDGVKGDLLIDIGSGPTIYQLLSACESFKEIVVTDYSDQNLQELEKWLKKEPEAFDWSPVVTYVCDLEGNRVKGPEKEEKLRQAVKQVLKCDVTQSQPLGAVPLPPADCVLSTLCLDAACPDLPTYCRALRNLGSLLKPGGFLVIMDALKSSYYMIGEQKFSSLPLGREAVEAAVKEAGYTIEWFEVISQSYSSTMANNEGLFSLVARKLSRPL
Protocol: The following are available online at https://www.mdpi.com/article/10.3390/biom11091357/s1, Figure S1: cellular MNA data in HMEc-1 cells treated with 10 µM reference inhibitors or prodrugs; ^1H and ^13C NMR spectra of compounds 3e, 4c–e, 8a, 11b–f, 12b–f, 13a–c, 13e, 14a–f.
Figure S1. 1-methylnicotinamide (MNA) concentrations in endothelial HMEC-1 cells after 24-hour incubation
with 10 µM of reference compounds 5-amino-methylquinolinium (5-MQ), 6-methylamino-nicotinamide (6-
MANA), parent compound GYZ-319 or prodrug compounds 12b-f and 14a-e. […]

[3] = Aqueous solubility (observation); format: physicochemical
pig liver esterase (PLE) = assay: Esterase-mediated hydrolysis to the parent compound (RP-HPLC); format: in vitro ADME
Protocol: The conversion of the prodrugs to the parent compound by esterases was evaluated using pig liver esterase (PLE, 18 U/mg, Sigma-Aldrich, St. Louis, MO, USA) in PBS at pH 7.4. Compounds were dissolved in DMSO at 40 mM, diluted to a final concentration of 2 mM with PBS, and added to an equal volume of a 10 mg/mL solution of PLE in PBS (pH 7.4), resulting in final concentrations of 2.5% DMSO, 1 mM compound, and 5 mg/mL PLE. At different time-points 50 µL aliquots were taken, added to 100 µL acetonitrile to precipitate the proteins, and centrifuged for 5 min at 10,000 rpm. The supernatant was subsequently analyzed by HPLC as described in Section 2.2 above.
The next step was to establish whether compounds 12e and 14e are converted to the parent compound in the presence of an esterase.

[4] = tested on: HSC-2 human oral cancer cell line; assay: MTT cell viability assay, HSC-2; format: cell-based
Protocol: (§1) HSC-2 human oral cancer cell line, T24 human bladder cancer cell line, and A549 human lung cancer line were cultured in DMEM/F12 medium and supplemented with 10% fetal bovine serum and 50 μg/mL gentamicin at 37 °C in a humidified 5% CO2 incubator. For each compound tested, powder was dissolved in DMSO at 100 mM concentration. This stock solution was then diluted in culture medium to final concentration values ranging between 1 µM and 100 µM. For each sample, DMSO was kept constant at 0.1% final concentration. The day before starting treatment, cells were seeded in 96-well plates, at a density of 2000 cells/well. Cells were allowed to attach overnight and then incubated with compounds at different concentrations, or with DMSO only, for 24, 48, and 72 h. All experiments were performed in triplicate.
(§2) Cell proliferation was determined using a colorimetric assay with 3-(4,5-dimethylthiazol-2-yl)-2,5-diphenyl tetrazolium bromide (MTT). The MTT assay measures the conversion of MTT to insoluble formazan by dehydrogenase enzymes of the intact mitochondria of living cells. Cell proliferation was evaluated by measuring the conversion of the tetrazolium salt MTT to formazan crystals upon treatment with compounds or DMSO only for 24, 48, and 72 h. Briefly, cells were incubated for 2 h at 37 °C with 100 µL fresh culture medium containing 5 µL of MTT reagent (5 mg/mL in PBS). The medium was removed and 200 µL isopropanol were added. The amount of formazan crystals formed correlated directly with the number of viable cells. The reaction product was quantified by measuring the absorbance at 540 nm using a plate reader. Experiments were repeated three times. Results were expressed as a percentage of the control (the control equals 100% and corresponds to the absorbance value of each sample at time zero) and presented as mean values ± standard deviation of three independent experiments performed in triplicate.

[5] = tested on: T24 human bladder cancer cell line; assay: MTT cell viability assay, T24; format: cell-based
Protocol: as §1, §2

[6] = tested on: A549 human lung cancer line; assay: MTT cell viability assay, A549; format: cell-based
Protocol: as §1, §2

NNMT [7] = target: T1, NNMT; assay: 1-Methylnicotinamide (MNA) quantification in A549 cells (LC-MS); conditions: A549 lung carcinoma cells; 0.1–100 µM; 24-h treatment (Figure 4)
Protocol: Human lung adenocarcinoma line (A549, ATCC, Manassas, VA, USA) was cultured according to the provider’s indications and seeded in 6-well format. […] After incubation, effluent samples were taken and frozen (−80 °C) for further MNA measurement. Cells also were collected, centrifuged (2 × 500 G/5 min.), and frozen both for the measurement of intracellular MNA and for BCA protein assay.
The quantification of 1-methylnicotinamide (MNA), nicotinamide (NA), nicotinic acid (NicA), 1-methyl-2-pyridone-5-carboxamide (Met-2Pyr), and 1-methyl-4-pyridone-5-carboxamide (Met-4Pyr) was performed by applying ultra-high pressure liquid chromatography coupled to tandem mass spectrometry (UPLC-MS) according to the methodology previously described with minor modifications [35]. A UPLC-MS system comprised of a UPLC Ultimate 3000 (Dionex, Thermo Scientific, Waltham, MA, USA) connected to a TSQ Quantum Ultra mass spectrometer (Thermo Scientific, Waltham, MA, USA) equipped with a heated electrospray ionization interface (HESI-II Probe, Waltham, MA, USA) was used. Chromatographic separation of analytes was carried out on an Aquasil C18 analytical column (4.6 mm × 150 mm, 5 mm; Thermo Scientific, Waltham, MA, USA) under isocratic elution using acetonitrile with 0.1% of formic acid (A) and 5 mM ammonium formate in water (B) as mobile phases delivered at the flow rate of 0.8 mL/min (A:B, 80:20, v/v). The cell pellet was resuspended in 60 µL of deionized water and 50 µL of suspension was transferred to a fresh test tube. An amount of 50 µL of effluent sample was used for the measurement of extracellular MNA. The internal standard (IS) containing MNA-d3 was added to each sample (5 µL) obtaining the final concentration of 500 ng/mL. After the sample mixing, the proteins were precipitated using 100 μL of acidified acetonitrile (0.1% of formic acid), and samples were mixed (10 min), cooled at 4 °C (15 min), and finally centrifuged (15,000× g, 15 min, 4 °C). A clear supernatant was transferred to a chromatographic vial and directly injected (5 µL) into UPLC-MS system. […] The concentration of MNA was calculated based on the calibration curve plotted for the analyte as the relationship between the peak area ratios of analyte/IS to the nominal concentration of the analyte. The concentration of analytes was normalized to milligram of proteins, which was assessed using a Pierce^TM BCA Protein Assay Kit (Thermo Fisher, Waltham, MA, USA) and a Synergy4 multiplate reader (BioTek, Winooski, VT, USA). […]
Using this assay, the levels of MNA produced by NNMT in an A549 lung carcinoma cell line can be quantified by means of a sensitive LC-MS method.

human cancer cell lines = tested on: human cancer cell lines; set-up: method as in PMID 34424711; conditions: range of human cancer cell lines; highest concentration tested 100 µM; cited from earlier work

SMILES	percentage of compound peak area present after 16 h of incubation, PBS [1] [%]	hydrolytic stability in buffer (in words) [1]	percentage of compound peak area present after 16 h of incubation, Tris [1] [%]	cellular activity (MNA concentration) compared to parent compound (NNMT [2])	aqueous solubility [3]	time to full conversion to the parent compound (pig liver esterase (PLE); 5 mg/mL PLE, PBS pH 7.4, 1 mM compound) [h]	hydrolysis in the absence of PLE (pig liver esterase (PLE); PBS pH 7.4, without PLE)	effect on cell viability (MTT) ([4]; 100 µM, 24, 48 and 72 h)	effect on cell viability (MTT) ([4]; 1 and 10 µM, 24, 48 and 72 h)	effect on cell viability (MTT) ([5]; 100 µM, 24, 48 and 72 h)	effect on cell viability (MTT) ([5]; 1 and 10 µM, 24, 48 and 72 h)	effect on cell viability (MTT) ([6]; 100 µM, 24, 48 and 72 h)	effect on cell viability (MTT) ([6]; 1 and 10 µM, 24, 48 and 72 h)	effect on cellular MNA levels (NNMT [7])	antiproliferative effects (human cancer cell lines)
CC(=O)Oc1cc(C)cc(C)c1C(C)(C)CC(=O)N[C@@H](CCN(C/C=C/c1ccc(C#N)cc1)C[C@H]1O[C@@H](n2cnc3c(N)ncnc32)[C@H](O)[C@@H]1O)C(=O)O [Compound 14a, (S)-2-(3-(2-acetoxy-4,6-dimethylphenyl)-3-methylbutanamido)-4-((((2R,3S,4R,5R)-5-(6-amino-9H-purin-9-yl)-3,4-dihydroxytetrahydrofuran-2-yl)methyl)((E)-3-(4-cyanophenyl)allyl)amino)butanoic acid]	99.10	most stable	93.97	not to improve the cellular activity of the parent compound	–	–	–	–	–	–	–	–	–	–	–
CC(=O)Oc1cc(C)cc(C)c1C(C)(C)CC(=O)N[C@@H](CCN(C/C=C/c1ccc(C#N)cc1)C[C@H]1O[C@@H](n2cnc3c(N)ncnc32)[C@H](O)[C@@H]1O)C(=O)OCc1ccccc1 [Compound 14f, Benzyl-(S)-2-(3-(2-acetoxy-4,6-dimethylphenyl)-3-methylbutanamido)-4-((((2R,3S,4R,5R)-5-(6-amino-9H-purin-9-yl)-3,4-dihydroxytetrahydrofuran-2-yl)methyl)((E)-3-(4-cyanophenyl)allyl)amino)butanoate]	–	–	–	–	poor aqueous solubility	–	–	–	–	–	–	–	–	–	–
CC(C)OC(=O)[C@@H](N)CCN(C/C=C/c1ccc(C#N)cc1)C[C@H]1O[C@@H](n2cnc3c(N)ncnc32)[C@H](O)[C@@H]1O [Compound 12e, Isopropyl-(S)-2-amino-4-((((2R,3S,4R,5R)-5-(6-amino-9H-purin-9-yl)-3,4-dihydroxytetrahydrofuran-2-yl)methyl)((E)-3-(4-cyanophenyl)allyl)amino)butanoate]	98.59	most stable	93.70	–	–	≤ 4	no hydrolysis was observed	effect comparable to GYZ-319	no effects	effect comparable to GYZ-319	no effects	effect comparable to GYZ-319	no effects	clear and significant decrease in MNA levels	–
N#Cc1ccc(/C=C/CN(CC[C@H](N)C(=O)O)C[C@H]2O[C@@H](n3cnc4c(N)ncnc43)[C@H](O)[C@@H]2O)cc1 [GYZ-319]	–	–	–	–	–	–	–	–	no effects	–	no effects	–	no effects	high concentrations of both 6-MANA and GYZ-319 are required to substantially decrease the levels of MNA	only showed significant antiproliferative effects at the highest concentration tested of 100 µM

Reference: PMC8466754, “Esterase-Sensitive Prodrugs of a Potent Bisubstrate Inhibitor of Nicotinamide N-Methyltransferase (NNMT) Display Cellular Activity” (Biomolecules, 2021)
